In ChEMBL document CHEMBL4616663, “Resorcylic Acid Lactones from an Ilyonectria sp” (J Nat Prod, 2020):
Calls of active or inactive are those of the source. No cut-off for these calls is given here.

Assays:
T-cell = test: Immunosuppressive activity in BALB/c mouse T cells assessed as reduction in ConA-induced cell proliferation; type: functional, cell-based
HCT-116 = test: Cytotoxicity against human HCT116 cells at 50 uM by MTT assay; type: functional, cell-based
A549 [1] = test: Cytotoxicity against human A549 cells at 50 uM by MTT assay; type: functional, cell-based
B-cell line = test: Immunosuppressive activity in BALB/c mouse B cells assessed as reduction in LPS-induced cell proliferation; type: functional, cell-based
769-P = test: Cytotoxicity against human 769-P cells at 50 uM by MTT assay; type: functional, cell-based
A549 [2] = test: Cytotoxicity against TRAIL-resistant human A549 cells assessed as reduction in cell viability at 50 uM cotreated with TRAIL after 24 hrs by MTT assay relative to compound alone; type: functional
A549 [3] = test: Cytotoxicity against TRAIL-resistant human A549 cells assessed as reduction in cell viability at 30 uM cotreated with TRAIL after 24 hrs by MTT assay relative to compound alone; type: functional
A549 [4] = test: Cytotoxicity against TRAIL-resistant human A549 cells assessed as reduction in cell viability at 15 uM cotreated with TRAIL after 24 hrs by MTT assay relative to compound alone; type: functional

Q: How did the IC50 (T-cell) turn out when `C[C@@H]1C/C=C/C(=O)CCCC(=O)Cc2cc(O)cc(O)c2C(=O)O1` was run?
A: The IC50 was > 25 µM.

Q: And the Activity (HCT-116)?
A: The Activity was “inactive”.

Q: And the Activity (A549 [1])?
A: The Activity was “inactive”.

Q: And the IC50 (B-cell line)?
A: The IC50 was 18.5 µM.

Q: What about the Activity (769-P) of the same compound?
A: Its Activity is “inactive”.

Q: Which IC50 (B-cell line) does the source give for `COc1c(C)c2c(c(O)c1C/C=C(\C)CCC(=O)OCCN1CCOCC1)C(=O)OC2` [MYCOPHENOLATE MOFETIL] here?
A: The IC50 was 3.2 µM.

Q: Which results are given for `CO[C@@H]1C=CC=C2Cc3c(Cl)c(O)cc(O)c3C(=O)O[C@H](C)C[C@@H](O)[C@H]1O2`?
A: IC50 (T-cell): > 25 µM; Activity (HCT-116): inactive; Activity (A549 [1]): inactive; IC50 (B-cell line): 5.5 µM; Activity (769-P): inactive

Q: How did the IC50 (T-cell) turn out when `C[C@@H]1C[C@@H](O)[C@@H]2CC[C@H](CC(=O)Cc3cc(O)cc(O)c3C(=O)O1)O2` was run?
A: Its IC50 is > 25 µM.

Q: And the Activity (HCT-116)?
A: The Activity was “inactive”.

Q: What about the Activity (A549 [1]) of the same compound?
A: Its Activity is “inactive”.

Q: What about the IC50 (B-cell line) of the same compound?
A: Its IC50 is > 25 µM.

Q: And the Activity (769-P)?
A: The Activity was “inactive”.

Q: Which results are given for `C[C@@H]1C[C@@H]2O[C@H]2[C@@H]2O[C@@H]2/C=C/[C@@H](O)CC(=O)Cc2c(Cl)c(O)cc(O)c2C(=O)O1`?
A: IC50 (T-cell): 1.9 µM; Activity (HCT-116): inactive; Activity (A549 [1]): inactive; IC50 (B-cell line): 1.1 µM; Activity (769-P): inactive

Q: Which results are given for `C[C@@H]1C[C@@H](O)/C=C\CCCC(=O)Cc2c(Cl)c(O)cc(O)c2C(=O)O1`?
A: IC50 (T-cell): > 25 µM; Activity (HCT-116): inactive; Activity (A549 [1]): inactive; IC50 (B-cell line): 21.9 µM; Activity (769-P): inactive

Q: Which results are given for `C[C@@H]1C/C=C/CCCC[C@H](O)CC(=O)Cc2c(Cl)c(O)cc(O)c2C(=O)O1`?
A: IC50 (T-cell): > 25 µM; Activity (HCT-116): inactive; Activity (A549 [1]): inactive; IC50 (B-cell line): > 25 µM; Activity (A549 [2]): 27%; Activity (769-P): inactive

Q: `C[C@H]1OC(=O)c2c(O)cc(O)cc2CC(=O)CCCC/C=C/[C@@H]1O` was tested. Which IC50 (T-cell) did it give?
A: The IC50 was > 25 µM.

Q: And the Activity (HCT-116)?
A: Its Activity is “inactive”.

Q: And the Activity (A549 [1])?
A: The Activity was “inactive”.

Q: What about the IC50 (B-cell line) of the same compound?
A: The IC50 was > 25 µM.

Q: What about the Activity (769-P) of the same compound?
A: The Activity was “inactive”.

Q: What does the source list for `C[C@@H]1C/C=C/CCCC[C@@H](O)CC(=O)Cc2c(Cl)c(O)cc(O)c2C(=O)O1`?
A: IC50 (T-cell): > 25 µM; Activity (HCT-116): inactive; Activity (A549 [1]): inactive; IC50 (B-cell line): > 25 µM; Activity (A549 [2]): 26%; Activity (769-P): inactive

Q: Which results are given for `C[C@H]1OC(=O)c2c(O)cc(O)c(Cl)c2/C=C/CC/C=C/[C@@H]1O`?
A: IC50 (T-cell): > 25 µM; Activity (HCT-116): inactive; Activity (A549 [1]): inactive; IC50 (B-cell line): > 25 µM; Activity (769-P): inactive

Q: How did the IC50 (T-cell) turn out when `C[C@@H]1CC[C@H](O)C(=O)CCCC(=O)Cc2c(Cl)c(O)cc(O)c2C(=O)O1` was run?
A: The IC50 was > 25 µM.

Q: What about the Activity (HCT-116) of the same compound?
A: Its Activity is “inactive”.

Q: What about the Activity (A549 [1]) of the same compound?
A: Its Activity is “inactive”.

Q: What about the IC50 (B-cell line) of the same compound?
A: Its IC50 is > 25 µM.

Q: And the Activity (769-P)?
A: The Activity was “inactive”.

Q: What does the source list for `C[C@@H]1C/C=C/CC/C=C/[C@@H](O)CC(=O)Cc2c(Cl)c(O)cc(O)c2C(=O)O1`?
A: IC50 (T-cell): 4.1 µM; Activity (HCT-116): inactive; Activity (A549 [3]): 31%; Activity (A549 [1]): inactive; Activity (A549 [4]): 22%; IC50 (B-cell line): 9.8 µM; Activity (A549 [2]): 29%; Activity (769-P): inactive

Q: `C[C@@H]1CC(=O)CCC/C=C/C(=O)Cc2c(Cl)c(O)cc(O)c2C(=O)O1` was tested. Which IC50 (T-cell) did it give?
A: The IC50 was > 25 µM.

Q: What about the Activity (HCT-116) of the same compound?
A: The Activity was “inactive”.

Q: And the Activity (A549 [1])?
A: The Activity was “inactive”.

Q: And the IC50 (B-cell line)?
A: The IC50 was > 25 µM.

Q: And the Activity (769-P)?
A: The Activity was “inactive”.
